# According to US20240139290A1, “METHODS OF TREATING A CARDIOVASCULAR ISCHEMIC EVENT” (Radius Health, Inc., priority 2021, published 2024):
# Entries after “also recorded” stand apart in the source; their conditions may differ.
# Key:
# HL-1 cardiomyocytes [1] = conditions: doxorubicin 2.5 μM for 24 hours; previously shown; cited from earlier work
# [2] = clinical studies; cited from earlier work
# HL-1 cardiomyocytes [3] = assay: HL-1 cardiomyocyte viability (MTT assay) under normoxia or simulated ischemia-reperfusion; assay type: cell-based, murine
# Description: HL-1 cardiomyocytes were grown to ˜80% confluence in 95% room air/5% CO2 at 37° C. in Claycomb medium supplemented with fetal bovine serum (10%), L-glutamine (2 mM), norepinephrine (0.1 mM), penicillin (100 U/mL) and streptomycin (100 μg/mL). The cardiomyocytes were then incubated for 24 hours with abaloparatide (0.1 nM, 1.0 nM, 10 nM, 100 nM) or vehicle control. At 24 hours after the onset of incubation, the cells were subjected to 2 hours of simulated ischemia (achieved by depletion of oxygen and nutrients), followed by 24 hours of reoxygenation. During simulated ischemia, Claycomb medium containing drug/placebo was replaced with drug-free hypoxia buffer at pH 6.6 (composed of NaCl ([…]), KCl (8 mM), KH2PO4 (1.2 mM), 1.25 mM MgSO4 (1.25 mM), CaCl2 (1.2 mM), NaHCO3 (6.25 mM), HEPES (20 mM), glucose (5.5 mM), 2-deoxy-D-glucose (20 mM), sodium lactate (5 mM): all ingredients from Sigma Aldrich, St. Louis, MO, USA) and the culture plates were sealed in a hermetic chamber with GasPak EZ Gas Generating Sachets (BD Biosciences, San Jose, CA, USA). Reoxygenation was achieved by removing the plates from the sealed chamber and exchanging the hypoxia buffer with serum-free Claycomb medium. Additional time- and treatment-matched normoxic cultures served as controls (n=4 independent replicates per group). Cell viability was quantified using the 3-(4,5-dimethythiazol-2-yl)-2,5-diphenyl tetrazolium bromide (MTT) assay.
# At 24 hours after the onset of incubation, the cells were subjected to 2 hours of simulated ischemia (achieved by depletion of oxygen and nutrients), followed by 24 hours of reoxygenation. Additional time- and treatment-matched normoxic cultures served as controls. Cell viability was quantified using the 3-(4,5-dimethythiazol-2-yl)-2,5-diphenyl tetrazolium bromide (MTT) assay.
# (§1) At 24 h after the onset of treatment, cells underwent 2 h of SI+10 min reoxygenation, while additional time- and treatment-matched normoxic cultures served as controls (n=3 independent replicates per group). At 10 min post-reoxygenation, cells were harvested and lysed in RIPA buffer containing 2 protease and phosphatase inhibitors. The lysates were centrifuged at 14,000×g for 15 min, and the resultant supernatant was collected and probed for the expression of ERK (total and phosphorylated: antibodies from Cell Signaling Technology Inc., Danvers, MA, USA), PI3 kinase/Akt (total and phosphorylated: Cell Signaling Technology Inc., Danvers, MA, USA) and GAPDH (Sigma Aldrich Inc., St. Louis, MO, USA) using standard methods Immunoreactive bands were identified by incubation with horseradish peroxidase (HRP)-conjugated secondary antibody, visualized using x-ray film, and quantified using the NIH ImageJ software. […] At 24 h after the onset of treatment, cells underwent either 2 h of SI+24 h reoxygenation or a time-matched period of normoxia (n=2 independent replicates per group). At 24 h following relief of SI, cell viability was quantified using the MTT assay as described in Example 1.
# Twenty-four hours after the onset of treatment, cells underwent 2 hours of simulated ischemia followed by 24 hours of reoxygenation. Additional time- and treatment-matched normoxic cultures served as controls. Cell viability was quantified using the MTT assay.
# [4] = human, in vivo, sc; cited from earlier work
# Akt = assay: Immunoblot of phospho-Akt in HL-1 cardiomyocytes (normoxia or simulated ischemia + 10 min reoxygenation); assay type: cell-based, murine; conditions: 2 h simulated ischemia + 10 min reoxygenation; 10 nM; vs vehicle; Example 3, FIG. 3B
# Description: as §1
# [5] = Obaidi et al. 2010; cited from earlier work
# ERK = assay: Immunoblot of phospho-ERK in HL-1 cardiomyocytes (normoxia or simulated ischemia + 10 min reoxygenation); assay type: cell-based, murine; conditions: for phospho-ERK expression with co-administration of PD98059: 5 μM PD98059, control, abaloparatide- and PTHrP-treated groups
# Description: as §1
# HL-1 cardiomyocytes were treated as described in Example 5, but were harvested at 10 minutes post-reoxygenation, lysed, and probed for phospho- and total ERK expression as detailed in Example 5.
# [6] = simulated ischemia + 10 min reoxygenation, Example 6, FIG. 6B
compound,measurement,setting,value
COc1cccc2c1C(=O)c1c(O)c3c(c(O)c1C2=O)C[C@@](O)(C(=O)CO)C[C@@H]3O[C@H]1C[C@H](N)[C@H](O)[C@H](C)O1 [doxorubicin],HL-1 cardiomyocytes killed,HL-1 cardiomyocytes [1],~50%
CC[C@H](C)[C@H](NC(=O)[C@H](CCC(=O)O)NC(=O)[C@H](CO)NC(=O)[C@@H](NC(=O)[C@@H](N)CO)C(C)C)C(=O)N[C@@H](CCC(N)=O)C(=O)N[C@@H](CC(C)C)C(=O)N[C@@H](CCSC)C(=O)N[C@@H](Cc1cnc[nH]1)C(=O)N[C@@H](CC(N)=O)C(=O)N[C@@H](CC(C)C)C(=O)NCC(=O)N[C@@H](CCCCN)C(=O)N[C@@H](Cc1cnc[nH]1)C(=O)N[C@@H](CC(C)C)C(=O)N[C@@H](CC(N)=O)C(=O)N[C@@H](CO)C(=O)N[C@@H](CCSC)C(=O)N[C@@H](CCC(=O)O)C(=O)N[C@@H](CCCN=C(N)N)C(=O)N[C@H](C(=O)N[C@@H](CCC(=O)O)C(=O)N[C@@H](Cc1c[nH]c2ccccc12)C(=O)N[C@@H](CC(C)C)C(=O)N[C@@H](CCCN=C(N)N)C(=O)N[C@@H](CCCCN)C(=O)N[C@@H](CCCCN)C(=O)N[C@@H](CC(C)C)C(=O)N[C@@H](CCC(N)=O)C(=O)N[C@@H](CC(=O)O)C(=O)N[C@H](C(=O)N[C@@H](Cc1cnc[nH]1)C(=O)N[C@@H](CC(N)=O)C(=O)N[C@@H](Cc1ccccc1)C(=O)O)C(C)C)C(C)C [teriparatide],orthostatic hypotension,[2],transient episodes of symptomatic orthostatic hypotension
same,palpitations,[2],palpitations
same,tachycardia,[2],tachycardia
abaloparatide,HL-1 cell viability vs vehicle-controls,"HL-1 cardiomyocytes [3]; 2 h simulated ischemia + 24 h reoxygenation, 10 nM, Example 5, FIG. 5B",viability was better maintained
same,HL-1 cell viability vs vehicle-controls,"HL-1 cardiomyocytes [3]; 2 h simulated ischemia + 24 h reoxygenation, 10 and 100 nM, Example 4, FIG. 4B",viability was better-maintained
same,HL-1 cell viability vs vehicle control,"HL-1 cardiomyocytes [3]; 2 h simulated ischemia + 24 h reoxygenation, abaloparatide 0.1-100 nM, 24 h pre-incubation, Example 1, FIG. 1B",viability was better-maintained
same,efficacy of abaloparatide relative to PTHrP(1-36),"HL-1 cardiomyocytes [3]; in vitro model of ischemia-reperfusion injury, summary statement",slightly but significantly greater than that of PTHrP(1-36)
same,viability of HL-1 cardiomyocyte cells,"HL-1 cardiomyocytes [3]; in vitro model of lethal ischemia-reperfusion injury, summary statement",enhancement in viability
same,HL-1 cell viability,"HL-1 cardiomyocytes [3]; normoxic conditions, abaloparatide 0.1-100 nM, 24 h incubation, Example 1, FIG. 1A",no effect on HL-1 cell viability
same,protective effect on viability with co-administration of PD98059,"HL-1 cardiomyocytes [3]; simulated ischemia-reperfusion, 10 nM peptide + 5 μM PD98059, Example 5, FIG. 5B",attenuated by co-administration of PD98059; also recorded: attenuated the protective effect
same,viability with 10 nM abaloparatide compared with other groups,"HL-1 cardiomyocytes [3]; simulated ischemia-reperfusion, p<0.05 between groups, Example 4, FIG. 4B",greater than that achieved with 100 nM abaloparatide and 10 nM PTHrP(1-36)
same,concentration with greatest efficacy on viability,"HL-1 cardiomyocytes [3]; simulated ischemia-reperfusion, tested 0.1, 1.0, 10, 100 nM, Example 1, FIG. 1B",10 nM
same,HL-1 cardiomyocyte death caused by simulated ischemia-reperfusion,HL-1 cardiomyocytes [3]; summary statement on Examples 1-3,attenuated HL-1 cardiomyocyte death
same,heart rate,[4],modest and transient increases in heart rate
same,heart rate relative to placebo,[4],transient increases in heart rate
same,incidence of palpitations relative to placebo,[4],higher incidences of palpitations
same,supine blood pressure,[4],decreases in supine blood pressure
same,expression of phospho-Akt (normalized to GAPDH),Akt,better preservation of phospho-Akt
same,anabolic activity,[5],potent anabolic activity
same,bone resorption,[5],decreased bone resorption
same,calcium-mobilizing potential,[5],less calcium-mobilizing potential
same,expression of phospho-ERK (normalized to total ERK),"ERK; 2 h simulated ischemia + 10 min reoxygenation, 10 nM, vs vehicle, Example 3, FIG. 3C",augmented expression of phospho-ERK
same,expression of phospho-ERK vs vehicle-controls,"ERK; simulated ischemia + 10 min reoxygenation, 10 nM, Example 6, FIG. 6B",augmented expression phospho-ERK
same,phospho-ERK expression with co-administration of PD98059,ERK; [6],attenuated
COc1cccc(-c2cc(=O)c3ccccc3o2)c1N [PD98059],phospho-ERK expression with co-administration of PD98059,ERK; [6],attenuated
